From patent publication US8883963B2 (Cadila Healthcare Limited, priority 2007, dated 2014)
Starred links: 1 amine or outer side, 2 acyl side, 3 side chain; linkers in the order of their positions; H or OH if unused. Non-standard residues stand in square brackets, D forms with d. Residues, ends and D or L forms follow the SMILES beside them. ξ: configuration not given here. ξBip(2'-Et-4'-OMe) = CCc1cc(OC)ccc1-c1ccc(CC(N)C(=O)O)cc1; X10 = O=C(C(CCCc1ccc(F)cc1F)N[*:1])[*:2]; ξbishPhe(2-F) = NC(CCCc1ccccc1F)C(=O)O; ξαMePhe(2-F) = CC(N)(Cc1ccccc1F)C(=O)O; aThr = C[C@H](O)[C@H](N)C(=O)O; ξhhPhe = NC(CCCc1ccccc1)C(=O)O; Aib = CC(C)(N)C(=O)O

System: RIN5F (Rat Insulinoma) cells
Assay: In vitro glucose-dependent insulin secretion (RIN5F cell assay screening protocol)
Format: cell-based
Details: 16.7 mM glucose load
Description: RIN5F (Rat Insulinoma) cells were cultured in RPMI 1640 medium supplemented with sodium pyruvate (1 mM) HEPES and Glucose (4.5 g/L) in a humidified incubator (5% CO2), at 37° C. After trypsinization, RIN5F cells were seeded at a concentration of 0.2×10^6 cells per well, in 12 well plates.
The buffer was replaced after 40 min. and the cells were incubated (37° C.) with the test peptidomimetics, at different concentration, for 30 min., both in the presence (16.7 mM) and absence (0 mM) of glucose load. The supernatant was collected and the insulin amount was measured by ultra sensitive Rat insulin ELISA kit (Crystal Chem, IL). The protein was estimated in the supernatant using Bicinchoninic Acid kit, according to the manufacturer's protocol (Sigma Aldrich, MO). The total insulin content obtained in Pico-gram (pg) was divided with the total protein (μg) in order to normalize for differences in cell density between wells.

## CCc1cc(OC)ccc1-c1ccc(CC(NC(=O)[C@H](CC(=O)O)NC(=O)[C@H](CO)NC(=O)[C@@H](NC(=O)C(C)(Cc2ccccc2F)NC(=O)[C@@H](NC(=O)CNC(=O)[C@H](CCC(N)=O)NC(=O)C(C)(C)NC(=O)[C@@H](N)Cc2c[nH]cn2)[C@H](C)O)[C@@H](C)O)C(=O)NC(CCCc2ccccc2F)C(N)=O)cc1 (stereo partly drawn) [compound 111] (H-H[Aib]QG[aThr][ξαMePhe(2-F)]TSD[ξBip(2'-Et-4'-OMe)][ξbishPhe(2-F)]-NH2)
0.1 nM test compd.
  Insulin secretion: 16.2 ± 0.20 pg/µg/h
1 nM test compd.
  Insulin secretion: 22.2 ± 0.20 pg/µg/h
10 nM test compd.
  Insulin secretion: 36.1 ± 0.31 pg/µg/h

## CCc1cc(OC)ccc1-c1ccc(CC(NC(=O)[C@H](CC(=O)O)NC(=O)[C@H](CO)NC(=O)[C@@H](NC(=O)C(C)(Cc2ccccc2F)NC(=O)[C@@H](NC(=O)CNC(=O)[C@H](CC(C(F)(F)F)C(F)(F)F)NC(=O)C(C)(C)NC(=O)[C@@H](N)Cc2c[nH]cn2)[C@@H](C)O)[C@@H](C)O)C(=O)NC(CCCc2cc(C)cc(C)c2)C(N)=O)cc1 (single isomer, unassigned) [compound 235]
0.1 nM test compd.
  Insulin secretion: 12.6 ± 0.25 pg/µg/h
1 nM test compd.
  Insulin secretion: 15.3 ± 0.31 pg/µg/h
10 nM test compd.
  Insulin secretion: 29.7 ± 0.48 pg/µg/h

## CCc1cc(OC)ccc1-c1ccc(CC(NC(=O)[C@H](CC(=O)O)NC(=O)[C@H](CO)NC(=O)[C@@H](NC(=O)C(C)(Cc2ccccc2F)NC(=O)[C@@H](NC(=O)CNC(=O)[C@H](CCC(N)=O)NC(=O)C(C)(C)NC(=O)[C@@H](N)Cc2c[nH]cn2)[C@H](C)O)[C@H](C)O)C(=O)NC(CCCc2ccccc2)C(N)=O)cc1 (stereo partly drawn) [compound 113] (H-H[Aib]QG[aThr][ξαMePhe(2-F)][aThr]SD[ξBip(2'-Et-4'-OMe)][ξhhPhe]-NH2)
0.1 nM test compd.
  Insulin secretion: 15.6 ± 0.31 pg/µg/h
1 nM test compd.
  Insulin secretion: 21.8 ± 0.16 pg/µg/h
10 nM test compd.
  Insulin secretion: 35.6 ± 0.28 pg/µg/h

## CCc1cc(OC)ccc1-c1ccc(CC(NC(=O)[C@H](CC(=O)O)NC(=O)[C@H](CO)NC(=O)[C@@H](NC(=O)C(C)(Cc2ccccc2F)NC(=O)[C@@H](NC(=O)CNC(=O)[C@H](CCC(N)=O)NC(=O)C(C)(C)NC(=O)[C@H](Cc2c[nH]cn2)NC(C)=O)[C@H](C)O)[C@H](C)O)C(=O)NC(CCCc2ccccc2F)C(N)=O)cc1 (single isomer, unassigned) [compound 103]
0.1 nM test compd.
  Insulin secretion: 12.1 ± 0.51 pg/µg/h
1 nM test compd.
  Insulin secretion: 14.1 ± 0.19 pg/µg/h
10 nM test compd.
  Insulin secretion: 28.1 ± 0.29 pg/µg/h

## CCc1cc(OC)ccc1-c1ccc(CC(NC(=O)[C@H](CC(=O)O)NC(=O)[C@H](CO)NC(=O)[C@@H](NC(=O)C(C)(Cc2ccccc2F)NC(=O)[C@@H](NC(=O)CNC(=O)[C@H](CCC(N)=O)NC(=O)C(C)(C)NC(=O)[C@@H](N)Cc2c[nH]cn2)[C@@H](C)O)[C@@H](C)O)C(=O)NC(CCCc2ccccc2F)C(N)=O)cc1 (stereo partly drawn) [compound 85] (H-H[Aib]QGT[ξαMePhe(2-F)]TSD[ξBip(2'-Et-4'-OMe)][ξbishPhe(2-F)]-NH2)
0.1 nM test compd.
  Insulin secretion: 11.9 ± 0.17 pg/µg/h
1 nM test compd.
  Insulin secretion: 14.2 ± 0.13 pg/µg/h
10 nM test compd.
  Insulin secretion: 27.6 ± 0.16 pg/µg/h

## CCc1cc(OC)ccc1-c1ccc(CC(NC(=O)[C@H](CC(=O)O)NC(=O)[C@H](CO)NC(=O)[C@@H](NC(=O)[C@H](Cc2ccccc2)NC(=O)[C@@H](NC(=O)CNC(=O)[C@H](CCC(N)=O)NC(=O)[C@H](CO)NC(=O)[C@@H](N)Cc2c[nH]cn2)[C@@H](C)O)[C@@H](C)O)C(=O)NC(CCCc2ccc(F)cc2F)C(N)=O)cc1 (stereo partly drawn) [compound 46] (H-HSQGTFTSD[ξBip(2'-Et-4'-OMe)][X10]-NH2)
0.1 nM test compd.
  Insulin secretion: 12.7 ± 0.21 pg/µg/h
1 nM test compd.
  Insulin secretion: 15.8 ± 0.33 pg/µg/h
10 nM test compd.
  Insulin secretion: 29.3 ± 0.19 pg/µg/h
